Among the data in PubChem BioAssay (NCI) are TGI values, retold here.

Among the test systems are U251 CNS; SK-MEL-28 melanoma; SNB-19 CNS; K-562 leukemia; HS 578T breast; SK-OV-3 ovarian; CCRF-CEM leukemia; BT-549 breast; MALME-3M melanoma; LOX IMVI melanoma; NCI-H226 lung; UACC-257 melanoma; OVCAR-4 ovarian; SK-MEL-2 melanoma.
Common to all, as to assay: growth of human tumour cells (NCI), 48 h

Structures are written as SMILES.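 Test compounds were applied to cells in 96-well plates for 48 hours at 5 doses. The concentration for full growth arrest is given as TGI.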 A value given as a limit tells only on which side of the number the result lay.

As for `Fc1nc(-c2c3ccccc3c3sc4ccccc4n23)nc(N2CCOCCOCCOCCOCC2)n1`, the TGI in the assay on U251 CNS, with SK-MEL-28 melanoma, with SNB-19 CNS, in the assay with K-562 leukemia, in the assay on HS 578T breast and with SK-OV-3 ovarian was > 100 µM throughout. Further, the TGI was 93.4 µM in the assay with CCRF-CEM leukemia; > 100 µM in the assay on BT-549 breast; > 100 µM in the assay with MALME-3M melanoma; > 100 µM in the assay on LOX IMVI melanoma; > 100 µM in the assay with NCI-H226 lung; > 100 µM in the assay with UACC-257 melanoma. Further, the TGI in the assay with OVCAR-4 ovarian was > 100 µM.

On to `CC1(C)C2CCC1(C)C(NC(=O)COCCOCC(N)=O)C2` (stereo unspecified), for which the TGI in the assay with U251 CNS, with SK-MEL-28 melanoma, in the assay on SNB-19 CNS, with K-562 leukemia, in the assay on HS 578T breast and in the assay on SK-OV-3 ovarian was > 100 µM each time. Besides, the TGI in the assay with CCRF-CEM leukemia, with BT-549 breast, in the assay with MALME-3M melanoma, in the assay with NCI-H226 lung, with UACC-257 melanoma and with OVCAR-4 ovarian was > 100 µM each time.

As for `C=C(Cl)C(Cl)(CBr)CCCC(C)C` (stereo unspecified), the TGI in the assay with U251 CNS was 21.9 µM; in the assay with SK-MEL-28 melanoma it was 37.3 µM; in the assay with SNB-19 CNS, 47.4 µM; in the assay on K-562 leukemia it was > 100 µM; in the assay on HS 578T breast, 26.9 µM; with SK-OV-3 ovarian, > 100 µM. Moreover, the TGI with CCRF-CEM leukemia is > 100 µM; in the assay on BT-549 breast it was > 100 µM; in the assay on MALME-3M melanoma, > 100 µM; in the assay on LOX IMVI melanoma, > 100 µM; in the assay on NCI-H226 lung, > 100 µM; in the assay with UACC-257 melanoma it was 32.2 µM. In the assay on OVCAR-4 ovarian, the TGI is > 100 µM.

`O=C(c1ccsc1)c1nccc2c1cnc1ccccc12`: the TGI was > 100 µM with U251 CNS; > 100 µM in the assay on SK-MEL-28 melanoma; > 100 µM with SNB-19 CNS; 70.6 µM in the assay with HS 578T breast; > 100 µM in the assay with SK-OV-3 ovarian; > 100 µM in the assay on CCRF-CEM leukemia. In addition, the TGI with BT-549 breast, with MALME-3M melanoma, with LOX IMVI melanoma, with NCI-H226 lung, in the assay with UACC-257 melanoma and in the assay on SK-MEL-2 melanoma was > 100 µM throughout. Also, the TGI with OVCAR-4 ovarian was > 100 µM.

Take `CC(C)(CO)CNc1nc(N)nc(Cl)c1C=O`: the TGI is > 100 µM with U251 CNS; 83.8 µM with SK-MEL-28 melanoma; > 100 µM in the assay with K-562 leukemia; 70.7 µM with HS 578T breast; 83.9 µM in the assay on CCRF-CEM leukemia; > 100 µM in the assay on BT-549 breast. The TGI was > 100 µM in the assay with MALME-3M melanoma; 33.8 µM in the assay on LOX IMVI melanoma; > 100 µM in the assay with NCI-H226 lung; > 100 µM in the assay with UACC-257 melanoma; 39.2 µM in the assay on SK-MEL-2 melanoma; > 100 µM with OVCAR-4 ovarian.

For `c1ccc2c(c1)n1c(N3CCCC3)[n+]3ccccc3c1c1c3cccc[n+]3c(N3CCCC3)n21`, the TGI in the assay with U251 CNS, in the assay on SK-MEL-28 melanoma, with SNB-19 CNS, in the assay with K-562 leukemia, in the assay on HS 578T breast and with CCRF-CEM leukemia was > 100 µM each time. Also, the TGI in the assay on BT-549 breast, in the assay with MALME-3M melanoma, in the assay with LOX IMVI melanoma, with NCI-H226 lung, in the assay on UACC-257 melanoma and in the assay on SK-MEL-2 melanoma was > 100 µM in each case. Moreover, in the assay on OVCAR-4 ovarian, the TGI is > 100 µM.

Take `COc1ccc(-n2c(C)nc3ccc(NC4OC(COC(C)=O)C(OC(C)=O)C(OC(C)=O)C4OC(C)=O)cc3c2=O)cc1` (stereo unspecified): the TGI in the assay on U251 CNS is > 100 µM; with SK-MEL-28 melanoma, > 100 µM; in the assay with SNB-19 CNS, > 100 µM; with K-562 leukemia, 79 µM; with HS 578T breast, > 100 µM; with BT-549 breast, > 100 µM. The TGI in the assay on MALME-3M melanoma, in the assay on LOX IMVI melanoma, in the assay on NCI-H226 lung, in the assay on UACC-257 melanoma, with SK-MEL-2 melanoma and with OVCAR-4 ovarian was > 100 µM in each case.

As to `COc1ccc(-n2c(C)nc3ccc(NC4OCC(OC(C)=O)C(OC(C)=O)C4OC(C)=O)cc3c2=O)cc1` (stereo unspecified), the TGI in the assay with U251 CNS, in the assay with SK-MEL-28 melanoma, in the assay with SNB-19 CNS, in the assay with K-562 leukemia, in the assay on HS 578T breast and in the assay with BT-549 breast was > 100 µM each time. Also, the TGI with MALME-3M melanoma, with LOX IMVI melanoma, in the assay on NCI-H226 lung, in the assay on UACC-257 melanoma, with SK-MEL-2 melanoma and in the assay with OVCAR-4 ovarian was > 100 µM in each case.

Take `COc1ccc2c(c1)C1Oc3ccccc3CC1CO2` (stereo unspecified): the TGI in the assay with U251 CNS, in the assay on SNB-19 CNS, in the assay on K-562 leukemia, in the assay with HS 578T breast, with SK-OV-3 ovarian and in the assay with CCRF-CEM leukemia was > 100 µM throughout. Further, the TGI in the assay on BT-549 breast, with MALME-3M melanoma, with LOX IMVI melanoma, in the assay on NCI-H226 lung, with UACC-257 melanoma and in the assay with SK-MEL-2 melanoma was > 100 µM in each case. Also, the TGI with OVCAR-4 ovarian was > 100 µM.

As to `NNC(=O)c1cc(Cl)ccc1NC(=O)C12CC3CC(CC(C3)C1)C2`, the TGI in the assay with U251 CNS was > 100 µM; in the assay with SK-MEL-28 melanoma, > 100 µM; with SNB-19 CNS, 43.1 µM; in the assay on K-562 leukemia it was > 100 µM; in the assay on HS 578T breast it was > 100 µM; with SK-OV-3 ovarian, > 100 µM. Moreover, the TGI is > 100 µM in the assay with BT-549 breast; 68.6 µM in the assay with MALME-3M melanoma; > 100 µM with LOX IMVI melanoma; > 100 µM in the assay on NCI-H226 lung; 96.2 µM with UACC-257 melanoma; > 100 µM with SK-MEL-2 melanoma. Besides, the TGI in the assay with OVCAR-4 ovarian is > 100 µM.
